Reference: patent US12054485B2, “Substituted imidazoquinolines” (BIONTECH SE, priority 2017, dated 2024)

Target: T1, human TLR7 (Homo sapiens, UniProt Q9NYK1)
T1 construct: host or cells: HEK-Blue-hTLR7
T1 sequence (Q9NYK1 27-1049): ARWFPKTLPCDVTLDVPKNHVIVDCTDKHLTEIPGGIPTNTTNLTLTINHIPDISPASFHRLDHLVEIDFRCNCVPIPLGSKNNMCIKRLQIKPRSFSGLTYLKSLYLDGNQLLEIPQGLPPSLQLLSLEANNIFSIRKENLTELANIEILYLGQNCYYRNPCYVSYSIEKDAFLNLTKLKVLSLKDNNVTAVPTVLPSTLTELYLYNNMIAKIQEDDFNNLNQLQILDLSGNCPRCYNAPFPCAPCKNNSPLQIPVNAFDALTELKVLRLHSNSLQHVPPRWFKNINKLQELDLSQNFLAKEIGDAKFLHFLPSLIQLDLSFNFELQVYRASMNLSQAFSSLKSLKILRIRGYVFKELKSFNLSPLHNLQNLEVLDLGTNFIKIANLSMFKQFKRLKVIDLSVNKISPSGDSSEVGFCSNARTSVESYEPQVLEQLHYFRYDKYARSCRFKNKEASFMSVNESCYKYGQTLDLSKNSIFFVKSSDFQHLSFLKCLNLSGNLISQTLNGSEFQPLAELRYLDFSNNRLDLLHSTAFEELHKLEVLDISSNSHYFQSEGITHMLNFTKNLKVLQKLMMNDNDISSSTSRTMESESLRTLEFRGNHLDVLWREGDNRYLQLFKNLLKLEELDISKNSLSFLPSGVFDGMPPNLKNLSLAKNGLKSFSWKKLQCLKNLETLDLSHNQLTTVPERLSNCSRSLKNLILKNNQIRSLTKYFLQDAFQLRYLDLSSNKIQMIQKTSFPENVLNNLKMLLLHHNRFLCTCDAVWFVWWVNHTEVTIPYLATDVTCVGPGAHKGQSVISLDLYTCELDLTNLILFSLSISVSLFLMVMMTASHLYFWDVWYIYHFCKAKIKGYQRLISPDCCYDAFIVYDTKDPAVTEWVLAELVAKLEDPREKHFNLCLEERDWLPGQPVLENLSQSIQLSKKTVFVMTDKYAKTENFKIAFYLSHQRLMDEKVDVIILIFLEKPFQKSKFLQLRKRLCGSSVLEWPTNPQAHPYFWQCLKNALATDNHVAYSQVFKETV
Assay: TLR7 reporter gene assay (HEK-Blue-hTLR7, NFkB/AP-1 inducible SEAP)
Format: cell-based
Conditions: HEK-Blue-hTLR7; read-out: EC50 in the TLR7 reporter gene assay
Description: 2) TLR Stimulation Assay:
Compounds are tested for stimulation of human TLR7 and TLR8, respectively, via reporter gene expression analyzed in a cell line stably transfected with human TLR7 and TLR8, respectively, and coexpressing an NFkB/AP-1 inducible SEAP reporter gene. Stimulation with a TLR ligand leads to NFkB/AP-1 activation and upregulation and secretion of SEAP, which can be measured in the supernatant with QuantiBlue™ detection system (InvivoGen).
Cell lines used were either HEK-Blue-hTLR7 (InvivoGen #hkb-htlr7) or HEK-Blue-hTLR8 (InvivoGen #hkb-htlr8). Cells were cultured following manufacturer's instructions.
Assay: • prepare cell suspensions of each cell line with Nv=0.11×10^6 cells/ml in medium (DMEM 4.5 g/l Glucose, 2-4 mM L-glutamine+10% FBS) without antibiotics (Nv=number of living cells) • add 180 μl of the suspensions per well of a 96 well flat bottom cell culture plates (coster, #3506) • incubate the plates overnight at 37° C. and 5% CO2 • prepare samples and controls as solutions in DMSO: R848, CL075 (TLR 7/8 agonist by InvivoGen) and Guardiquimod each to a final concentration of 10 μM, ODN2006 (InvivoGen) and ODN2216 (InvivoGen) each to a final concentration 2 μM; • compounds of the invention are applied in dilution series to final concentrations of 30, 10, 3, 1, etc. μM • add 20 μl diluted compounds and controls (see above) to the wells • incubate plates for 20-24 h at 37° C. and 5% CO2 • prepare QuantiBlue™ (InvivoGen #10H19-MM) solution, following manufacturer's instructions: solubilize the powder of one pouch in 100 ml MilliQ grade water, heat at 37° C. in a water bath for about 30 min, filter the solution with a paper filter • add 100 μl prepared QuantiBlue™ solution in each well of a 96 well plate with flat bottom • add […] cell culture supernatant from the induced cells per well • incubate plates for 1 to 1.5 h at 37° C. (until an intense blue color has developed) • read OD at 620 nm with a plate reader • calculate EC50 from data points

For `CCc1nc2c(N)nc3ccccc3c2n1CCCCN(C(C)=O)C1CCOCC1` [Example 1, N-(4-(4-Amino-2-ethyl-1H-imidazo[4,5-c]quinolin-1-yl)butyl)-N-(tetrahydro-2H-pyran-4-yl)acetamide], the EC50 was 44 nM.
